Data from patent US20230165865A1, “HETEROARYLDIHYDROPYRIMIDINE DERIVATIVES AND METHODS OF TREATING HEPATITIS B INFECTIONS” (Janssen Pharmaceutica NV, priority 2018, published 2023).

Key:
[1] = Metabolic stability of test compound in human hepatocyte cell; format: in vitro ADME; conditions: cryopreserved human hepatocytes (suspension), human hepatocytes; for half-life at 1 uM: 0-120 min, read-out: T½; for CLint scaled at 1 uM: scale-up intrinsic clearance, scaling factor 2544.3, read-out: Clint (liver)
Experimental: • 1. The cryopreserved human hepatocytes cells were thawed in 37° C. water bath and diluted with pre-warmed incubation medium to a working cell density of 1×10^6 viable cells/mL. • 2. The 198 μL pre-warmed hepatocyte suspensions were spiked with 2 μL of 100 μM compound or reference compound(Verapamil) at a final concentration of 1.0 μM in a 96-well plate. The plate was incubated at 37° C., 900 rpm. All incubations will be performed in singlet. • 3. 25 μL aliquots of well contents were collected at time points of 0, 15, 30, 60, 90 and 120 minutes. The reactions were stopped by the addition of 6-fold volumes of cold acetonitrile with internal standards. • 4. After centrifugation for 25 minutes at 3,220 g. Aliquot of 100 μL of the supernatant was mixed with 100 μL of ultra-pure H2O and then used for LC-MS/MS analysis.
All calculations were carried out using Microsoft Excel. Peak areas were determined from extracted ion chromatograms. Determine the in vitro half-life (t1/2) of parent compound by regression analysis of the percent parent disappearance vs. time curve.
The in vitro half-life (in vitro t1/2) is determined from the slope value k:
Conversion of the in vitro t1/2(in min) into the in vitro intrinsic clearance (in vitro CLint, in μL/min/10^6 cells) is done using the following equation:
V=incubation volume (0.2 mL);
N=number of hepatocytes per well (0.2×10^6 cells).
Conversion of the in vitro t1/2(in min) into the scale-up intrinsic clearance (CLint(liver), in mL/min/kg) was done using the following equation:
CLint(liver)=kV/N×scaling factor

CYP3A4 = assay: In vitro assessment of CYP3A4 induction in cryopreserved human hepatocytes (mRNA level); format: in vitro ADME
Experimental: Preparation and Plating of Human Hepatocytes • 1. The cryopreserved human hepatocytes were thawed in 37° C. water bath and diluted by plating medium to a seeding density of 0.55×10^6 cells/mL. • 2. Transfer 100 μL to each well of collagen I coated 96-well plate. Place plate(s) in incubator and incubate at 37° C. for 4-6 hours. • 3. After incubation, observe cell morphology, agitate plate(s) to loosen debris, and replace medium. Place plate in incubator and incubate for 18 hours. Incubation with Test Compound(s) • 1. Prepare dilute test compound and positive control inducers with 37° C. prepared incubation medium to respective working concentrations (Table 11). Final concentration of DMSO in the treatment group will be 0.1%. Prepare 25 mM chlorpromazine in DMSO and dilute 1000-fold with incubation medium as a cytotoxicity control. • 2. Remove the Hepatocyte plate from the incubator. Observe cell morphology. Replace the medium in the appropriate wells with 125 μL of the toxicity controls, DMSO controls, inducers, or test article solutions, each in triplicate. • 3. After 24 hours and 48 hours, remove the Hepatocyte plate from the incubator and observe cell morphology. Renew the medium with test articles that freshly diluted from DMSO stocks. Return plate to the incubator. 4. mRNA Preparation and RT-PCR • 1. mRNA was prepared and measured using the Cells-to-Ct kit. Add DNase to Lysis solution. • 2. 15 μL of sample lysate was added to 35 µL of Reverse Transcription Master Mix (containing 2×RT Buffer, 20×RT Enzyme Mix and Nuclease-free Water) for a final 50 μL reaction volume. • 3. Separate PCR cocktails were prepared for CYP3A4; containing the CYP specific probe set and that of ACTB as the endogenous control gene. […] Reactions were analyzed on an Applied Biosystems Real Time PCR system (AB 7500). […] For mRNA level determination, the mRNA content in each well is expressed as 2^Ct(ACTB)-Ct(CYP). Fold of induction=mRNA(induced)/mRNA(vehicle) 3) The percent adjusted positive control is determined by: % of positive control=[(fold induction of test article)/(fold induction of positive control)]*100

[2] = Pharmacokinetic study after intravenous and oral administration in male SD rats; format: in vivo; conditions: for clearance / Cmax: male, SD; for clearance / IV AUCinf/Dose: IV, nominal 2 mg/kg; for clearance: read-out: IV Cl; for Cmax / PO AUCinf/Dose: PO; for Cmax: nominal 5 mg/kg; for F: PO vs IV
Experimental: Male SD rats with a weight range of 250-300 g (Si Bei Fu Laboratory Animal Technology Co. Ltd, China) were used. Animals were fasted overnight and free access to food 4 hours after dosing.
Test compound (correction factor: 1.00) was dissolved in a 20% hydroxypropyl-β-cyclodextrin (HP-β-CD) at a final concentration of 1 mg/ml for the intravenous (IV) formulation and at final concentrations of 0.5 mg/ml for the oral (PO) formulation.
The intravenous formulation was dosed at 2 ml/kg to obtain a dose of 2 mg/kg. The oral formulations were dosed at 10 ml/kg to obtain final doses of 5 mg/kg.
Blood samples were taken at 5, 15 and 30 min, 1, 2, 4, 8 and 24 h after intravenous dose administration. Blood samples were taken at 15 and 30 min, 1, 2, 4, 8, 12 and 24 h after oral dose administration.
Approximately 0.20 mL blood will be collected into BD blood collection tubes containing Sodium Fluoride (NaF), Potassium Oxalate (KoX) and K3-EDTA at each time point. Samples were placed immediately on melting ice and plasma was obtained following centrifugation at 4° C. for 5 minutes at approximately 4000×g. Plasma samples were adjusted to pH 3-4 by phosphoric acid and stored at −75±15° C. prior to analysis. The whole process was completed within 1 hour.
Plasma samples were analyzed using LC-MS/MS methods. The lower limit of quantification (LLOQ) for plasma was 1.0 ng/ml.
A non-compartmental analysis using the “Linear up log down” rule was used for all data. A limited pharmacokinetic analysis was performed using Phoenix™ Professional (Version 6.1). Results: See table 10 below for plasma PK results.

[3] = rat plasma, comparing with reference 2

| mRNA Percentage of positive control at 10 uM (CYP3A4; CYP3A4 mRNA, donor 1, 10 μM, positive control rifampicin) [%] | mRNA Fold induction (Mean ± SD) (CYP3A4; CYP3A4 mRNA, donor 1, 10 μM, vs vehicle) | SMILES | half-life at 1 uM [1] [h] | CLint scaled at 1 uM [1] [mL/min/kg] | CYP induction effect, in words (CYP3A4; CYP3A4, comparing with reference 2) | clearance ([2]; rat plasma) [mL/min/kg] | Cmax ([2]; rat plasma) [ng/mL] | IV AUCinf/Dose ([2]; rat plasma) [ng·kg·h/mg/mL] | PO AUCinf/Dose ([2]; rat plasma) [ng·kg·h/mg/mL] | clearance, in words [2, 3] | dose-normalized AUC (AUCinf/Dose), in words [2, 3] | F ([2]; rat) [%] | bioavailability (F (%)), in words ([2]; rat, comparing with reference 2) |
| --- | --- | --- | --- | --- | --- | --- | --- | --- | --- | --- | --- | --- | --- |
|  |  | CCOC(=O)C1=C(CN2CCN3C(=S)N(CC(C)(C)C(=O)O)CC3C2)NC(c2nccs2)=N[C@H]1c1cccc(F)c1C (single isomer, unassigned) [Compound 1A] | 3.82 | 7.7 | no CYP induction effect | 11.6 | 4060 | 1578.1 | 1780.7 | far slower clearance | over two-folds higher | 113 | increased (or equal) bioavailability |
| 20.50 | 5.05 ± 0.61 | CCOC(=O)C1=C(CN2CCN3C(=O)N(CC(C)(C)C(=O)O)C[C@@H]3C2)NC(c2nccs2)=N[C@H]1c1cccc(F)c1C [Reference 2, reference compound] | 2.45 | 12 |  | 65.6 | 332 | 254.9 | 129.7 |  |  | 50.8 |  |
